Measurements taken from patent publication US20250221966A1, “RXFP1 AGONISTS” (BRISTOL-MYERS SQUIBB COMPANY, priority 2021, published 2025).

These compounds were tested against T1, human RXFP1 (Homo sapiens, UniProt Q9HBX9) (assay: RXFP1 cAMP assay (hRXFP1 HEK293 cAMP assay, HTRF)). Conditions: HEK293 cells stably expressing human RXFP1, 30 min at room temperature, read-out: cAMP hRXFP1 HEK293 Assay EC50.
T1 construct: expressed in transfected cells
T1 sequence (Q9HBX9 1-757): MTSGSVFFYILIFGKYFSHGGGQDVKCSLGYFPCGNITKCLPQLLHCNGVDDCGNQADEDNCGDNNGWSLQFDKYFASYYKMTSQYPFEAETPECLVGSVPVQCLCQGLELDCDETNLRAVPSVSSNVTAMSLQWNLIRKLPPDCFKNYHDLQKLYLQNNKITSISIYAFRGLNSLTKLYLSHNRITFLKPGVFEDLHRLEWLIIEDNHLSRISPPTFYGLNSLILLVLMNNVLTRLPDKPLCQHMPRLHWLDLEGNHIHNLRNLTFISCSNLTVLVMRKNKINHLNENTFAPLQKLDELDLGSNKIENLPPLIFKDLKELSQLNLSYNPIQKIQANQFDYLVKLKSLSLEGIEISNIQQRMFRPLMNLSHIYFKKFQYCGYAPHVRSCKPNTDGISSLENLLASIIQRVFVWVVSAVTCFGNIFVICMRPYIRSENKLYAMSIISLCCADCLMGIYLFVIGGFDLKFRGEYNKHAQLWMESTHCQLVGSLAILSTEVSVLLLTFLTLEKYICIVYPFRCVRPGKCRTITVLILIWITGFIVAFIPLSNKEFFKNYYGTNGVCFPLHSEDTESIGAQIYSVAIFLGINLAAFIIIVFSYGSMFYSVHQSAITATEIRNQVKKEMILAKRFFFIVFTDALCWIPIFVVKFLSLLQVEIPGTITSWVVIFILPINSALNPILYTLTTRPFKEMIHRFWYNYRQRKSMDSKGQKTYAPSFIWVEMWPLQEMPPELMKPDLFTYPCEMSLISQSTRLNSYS
Format: cell-based
Summary of the method: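 Potency and activity come from a four-parameter logistic fit of cAMP against compound concentration, tested from 0.010 nM up to 50 μM. The assay uses HEK293 cells stably expressing human RXFP1, incubated 30 min at ambient temperature with phosphodiesterase inhibitor IBMX present.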

Structure (SMILES) | EC50 [nM]
COc1ccc(C2=NOC3COCC23)cc1C(=O)N[C@H]1[C@@H](C(=O)NC2CCC(C(F)(F)F)C2)[C@H]2CC[C@@H]1/C2=C\C1CC1 (some centres unmarked) [compound 649] | 250
COc1ccc(C2=NOC3CC(CO)CC23)cc1C(=O)N[C@@H]1C2CCC(/C2=C/C2CC2)[C@@H]1C(=O)Nc1ccc(F)c(C(F)(F)F)c1 (single isomer, unassigned) [compound 433] | 2
CCC=C1C2CCC1[C@H](C(=O)Nc1ccc(F)c(C(F)(F)F)c1)[C@@H]2NC(=O)c1cc(F)c(F)cc1OC (some centres unmarked) [compound 47] | 47
COc1ccc(-c2cc(C3=NOC4CC(CO)CC34)ccc2F)cc1C(=O)N[C@H]1[C@@H](C(=O)Nc2ccc(F)c(C(F)(F)F)c2)[C@H]2CC[C@@H]1/C2=C\C1CCCC1 (some centres unmarked) [compound 952] | 1.5
COc1ccc(-c2cc(C(OC(=O)Nc3cccc(F)c3)C(F)(F)F)ccc2F)cc1C(=O)N[C@@H]1C2CCC(/C2=C/C2CC2)[C@@H]1C(=O)Nc1ccc(F)c(C(F)(F)F)c1 (some centres unmarked) [compound 228] | 3
O=C(N[C@H]1[C@@H](C(=O)Nc2ccc(F)c(C(F)(F)F)c2)[C@H]2CC[C@@H]1/C2=C\C1CC1)c1cc(C2=NOC3CC(CO)CC23)cc(F)c1OCCCF (some centres unmarked) [compound 784] | 3.4
COc1ccc(-c2cnc3nn(CC(=O)O)cc3c2)cc1C(=O)N[C@@H]1C2CCC(/C2=C/C(F)(F)F)[C@@H]1C(=O)Nc1ccc(F)c(C(F)(F)F)c1 (some centres unmarked) [compound 318] | 11
C=C/C=C1\C2CCC1[C@H](C(=O)Nc1ccc(F)c(C(F)(F)F)c1)[C@@H]2NC(=O)c1cc(-c2cc(C(=O)NS(C)(=O)=O)ccc2F)ccc1OC (some centres unmarked) [compound 162] | 40
COc1ccc(-c2cc(C(OC(=O)NC3CC4(CC4)C3)C(F)(F)F)ccc2F)cc1C(=O)N[C@@H]1C2CCC(/C2=C/C2CC2)[C@@H]1C(=O)Nc1ccc(F)c(C(F)(F)F)c1 (some centres unmarked) [compound 215] | 2
COc1ccc(C2=NOC3CC(CO)CC23)cc1C(=O)N[C@@H]1C2CCC(/C2=C/C2CC2)[C@@H]1C(=O)Nc1ccc(F)c(OC(F)(F)F)c1 (some centres unmarked) [compound 972] | 1.9
COc1ccc(C2=NOC3COCC23)cc1C(=O)N[C@H]1[C@@H](C(=O)NCc2ccccc2OC(F)(F)F)[C@H]2CC[C@@H]1/C2=C\C1CC1 (some centres unmarked) [compound 588] | 82
COc1ccc(-c2cc(C(O)C(=O)O)ccc2F)cc1C(=O)N[C@H]1[C@@H](C(=O)Nc2ccc(F)c(C(F)(F)F)c2)[C@H]2CC[C@@H]1/C2=C\CC1CC(F)(F)C1 (stereo partly drawn) [Example 352, 2-(3′-(((1R,2R,3S,4R,Z)-7-(2-(3,3-difluorocyclobutyl)ethylidene)-3-((4-fluoro-3-(trifluoromethyl)phenyl)carbamoyl)bicyclo[2.2.1]heptan-2-yl)carbamoyl)-6-fluoro-4′-methoxy-[1,1′-biphenyl]-3-yl)-2-hydroxyacetic acid] | 64
COc1ccc(C2CCN(C(=O)C(C)(C)O)C2)cc1C(=O)N[C@@H]1C2CCC(C2=CC2CC2)[C@@H]1C(=O)Nc1ccc(F)c(C(F)(F)F)c1 (some centres unmarked) [compound 555] | 41.4
COc1ccc(C2=NOC3COCC23)cc1C(=O)N[C@H]1[C@@H](C(=O)NCCC(C)(C)C)[C@H]2CC[C@@H]1/C2=C\C1CC1 (some centres unmarked) [compound 612] | 134
COc1ccc([C@@H]2CO[C@H]3[C@@H]2OC[C@H]3O)cc1C(=O)N[C@H]1[C@@H](C(=O)Nc2ccc(F)c(C(F)(F)F)c2)[C@H]2CC[C@@H]1/C2=C\C1CC1 [compound 620] | 163
O=C(N[C@H]1[C@@H](C(=O)Nc2ccc(F)c(C(F)(F)F)c2)[C@H]2CC[C@@H]1/C2=C\C1CC1)c1cc(C2=NOC3CC(CO)CC23)ccc1OCC(F)F (some centres unmarked) [compound 781] | 2.7
COc1c(F)cc(C2=NOC3CC(CO)CC23)cc1C(=O)N[C@H]1[C@@H](C(=O)Nc2ccc(F)c(C(F)(F)F)c2)[C@H]2CC[C@@H]1/C2=C\CC(C)C (some centres unmarked) [compound 796] | 3.7

Structure (SMILES) | EC50 [nM]
CCOC(=O)c1ccnn1-c1ccc(OC)c(C(=O)N[C@@H]2C3CCC(/C3=C/C(F)(F)F)[C@@H]2C(=O)Nc2ccc(F)c(C(F)(F)F)c2)c1 (some centres unmarked) [compound 344] | 757
COc1ccc(-c2cc(C(F)(F)F)ccc2F)cc1C(=O)N[C@@H]1C2CCC(/C2=C/C2CC2)[C@@H]1C(=O)Nc1ccc(F)c(C(F)(F)F)c1 (some centres unmarked) [compound 286] | 5
COc1ccc(-c2cc(C(CC(F)(F)F)NC(=O)C3CCOCC3)ccc2F)cc1C(=O)N[C@H]1[C@@H](C(=O)Nc2ccc(F)c(C(F)(F)F)c2)[C@H]2CC[C@@H]1/C2=C\C1CCCC1 (some centres unmarked) [compound 944] | 1.9
COc1c(F)cc(C2=NOC3CC(CO)CC23)cc1C(=O)N[C@H]1[C@@H](C(=O)Nc2ccc(F)c(C(F)(F)F)c2)[C@H]2CC[C@@H]1/C2=C\CC(O)C(F)(F)F (some centres unmarked) [compound 836] | 4.1
O=C(N[C@H]1[C@@H](C(=O)Nc2ccc(F)c(C(F)(F)F)c2)[C@H]2CC[C@@H]1/C2=C\C1CC1)c1cccc(C2=NOC3COCC23)c1 (single isomer, unassigned) [compound 647] | 241
COc1ccc(C2=NOC3CC(OC)CC23)cc1C(=O)N[C@@H]1C2CCC(/C2=C/C2CC2)[C@@H]1C(=O)Nc1ccc(F)c(C(F)(F)F)c1 (some centres unmarked) [compound 867] | 3.7
COc1ccc(C2=NOC3COCC23)cc1C(=O)N[C@H]1[C@@H](C(=O)NCc2cccnc2C)[C@H]2CC[C@@H]1/C2=C\C1CC1 (some centres unmarked) [compound 721] | 3910
COc1ccc(C2=NOC3CC(CO)CC23)cc1C(=O)N[C@H]1[C@@H](C(=O)N[C@H](C)C2(C)CC2)[C@H]2CC[C@@H]1/C2=C\c1csc(C)n1 (some centres unmarked) [compound 742] | 4.7
O=C(N[C@H]1[C@@H](C(=O)Nc2ccc(F)c(C(F)(F)F)c2)[C@H]2CC[C@@H]1/C2=C\C1CC1)c1cc(C2=NOC3CC(CO)CC23)ccc1OCCCF (some centres unmarked) [compound 787] | 4.2
COc1ccc(-c2ccc(C(=O)NCC(=O)O)cc2F)cc1C(=O)N[C@@H]1C2CCC(/C2=C/c2ccccc2)[C@@H]1C(=O)Nc1ccc(F)c(C(F)(F)F)c1 (some centres unmarked) [compound 194] | 5
COc1ccc(C2=NOC(C(=O)O)C2)cc1C(=O)N[C@@H]1C2CCC(/C2=C/C(F)(F)F)[C@@H]1C(=O)Nc1ccc(F)c(C(F)(F)F)c1 (some centres unmarked) [compound 389] | 54
COc1cc(F)c(F)cc1C(=O)N[C@@H]1C2CCC(/C2=C2\CCc3ccccc32)[C@@H]1C(=O)Nc1ccc(F)c(C(F)(F)F)c1 (some centres unmarked) [compound 72] | 250
COc1cc(C(=O)N[C@H]2[C@@H](C(=O)Nc3ccc(F)c(C(F)(F)F)c3)[C@H]3CC[C@@H]2/C3=C\C2CC2)cc(C2=NOC3COCC23)c1 (single isomer, unassigned) [compound 602] | 110
C[C@@H](NC(=O)[C@@H]1[C@H](NC(=O)c2cc(C3=NOC4CC(CO)CC34)cc(F)c2OCC2CC2)[C@@H]2CC[C@H]1/C2=C/C1CC1)C1(C)CC1 (some centres unmarked) [compound 758] | 0.9
COc1c(C)cc(C2=NOC3CC(CO)CC23)cc1C(=O)N[C@H]1[C@@H](C(=O)Nc2ccc(F)c(C(F)(F)F)c2)[C@H]2CC[C@@H]1/C2=C\C1CC1 (some centres unmarked) [compound 797] | 4.1
CC=C1C2CCC1[C@H](C(=O)Nc1ccc(F)c(C(F)(F)F)c1)[C@@H]2NC(=O)c1cc(F)c(F)cc1OC (some centres unmarked) [compound 50] | 150

Same assay, conditions: cAMP hRXFP1 HEK293 Assay EC50, HEK293 cells stably expressing human RXFP1, 30 min at room temperature

Structure (SMILES) | EC50 [nM]
COc1cc(F)c(F)cc1C(=O)N[C@@H]1[C@H](C(=O)Nc2ccc(F)c(C(F)(F)F)c2)[C@@H]2CC[C@H]1C2C(C)C (some centres unmarked) [compound 975] | 1000
COc1ccc(-c2ccc(C(=O)O)cc2)cc1C(=O)N[C@H]1[C@@H](C(=O)Nc2ccc(F)c(C(F)(F)F)c2)[C@H]2CC[C@@H]1C2=C(C)C [compound 83] | 66
